From PMC4410478, “Larvicidal activity and possible mode of action of four flavonoids and two fatty acids identified in Millettia pinnata seed toward three mosquito species” (Parasites & Vectors, 2015)
In brackets after ≈: the same amount, converted by molar mass. Like-named read-outs stand apart in the source and are kept apart here.

What was measured:
[1] = test system: third instar larvae from wild Aedes albopictus; test: direct-contact mortality bioassay; details: for LC50: Aedes albopictus, 24 h, read-out: LC50, mg/L (95% CL)
Protocol: (§1) A direct-contact mortality bioassay was used to evaluate the toxicity of all compounds to third instar larvae from the susceptible and wild mosquito populations. Each compound in acetone (for karanjin) or methanol (for the other compounds) was suspended in distilled water with Triton X-100 (20 μL/L). Groups of 20 mosquito larvae were separately put into paper cups (270 mL) containing each test compound solution (250 mL). The OPs temephos and fenthion served as positive controls and were similarly formulated. Negative controls consisted of the acetone– or methanol–Triton X-100 solution in distilled water. […] Treated and control (acetone– or methanol–Triton X-100 solution only) larvae were held under the same conditions as those used for colony maintenance. […] All treatments were replicated three times using 20 larvae per replicate.
(§2) In separate experiments, the efficacy of the 12 experimental liquid formulations was evaluated, as stated previously. Groups of 20 mosquito larvae were separately put into paper cups containing each test solution. Temephos 200 g/L EC served as a positive control. Negative controls consisted of the ethoxylated castor oil + polyoxyethylene dodecyl mono ether solution in distilled water or water. Mortalities were recorded, as stated previously. All treatments were replicated three times using 20 larvae per replicate.
(§3) Data were corrected for control mortality using Abbott’s formula [36]. The percentages of mortality were transformed to arcsine square-root values for analysis of variance (ANOVA). […] IC50 values and cAMP levels were subjected to ANOVA. The Bonferroni multiple-comparison method was used for comparison of means. Means ± SE of untransformed data are reported. Concentration–mortality data were subjected to probit analysis.

[2] = test system: third instar Aedes aegypti larvae; test: direct-contact mortality bioassay; details: for LC50: Aedes aegypti, 24 h, read-out: LC50, mg/L (95% CL)
Protocol: as §1, §2, §3

[3] = test system: third instar Culex pipiens pallens larvae; test: direct-contact mortality bioassay; details: for LC50: Culex pipiens, 24 h, read-out: LC50, mg/L (95% CL)
Protocol: as §1, §2, §3

[4] = test system: different mosquito species larvae; details: cited from earlier work
[5] = test system: octopamine sensitive adenylate cyclase, whole body homogenate from third instar A. aegypti larvae; test: Determination of cyclic AMP level (octopamine sensitive adenylate cyclase activity); format: biochemical, Aedes aegypti; details: 100 μM test compound; octopamine 100 μM alone as comparator
Protocol: The in vitro octopamine sensitive adenylate cyclase activity was investigated according to the modified method of Pratt and Pryor [35]. The whole bodies of 75 third instar A. aegypti larvae (106.2 mg) were homogenized in 500 μL of 2 mM Tris-maleate buffer (pH 7.4) containing 0.8 mM ethylene glycol tetraacetic acid (EGTA). Adenylate cyclase activity was measured using a cAMP Biotrak Enzyme immunoassay system according to the manufacturer’s instructions. The assay was conducted in a total volume of 100 μL containing 80 mM Tris-maleate buffer, 5 mM theophylline (to inhibit phosphodiesterase activity), 2 mM MgSO4, 0.5 mM adenosine triphosphate (ATP), 0.2 mM EGTA, 50 μL of whole body homogenate (equivalent to 4.22 μg protein), and 1 μL of the test compounds in Tris-maleate buffer containing 0.2% ethanol. After incubation for 5 min at 20°C, the reaction was initiated by the addition of ATP. Incubation was carried out at 30°C for 3 min in a shaking water bath. The reaction was terminated by boiling for 2 min, and then the assay tube was cooled and centrifuged for 10 min at 8000 g. The 50 μL aliquots of the supernatant were assayed for cAMP level.
The polystyrene microplates (1 strip of 8 wells) coated with a goat anti-mouse polyclonal antibody were used. Fifty microliters of primary antibody (mouse monoclonal antibody) solution was added to each well except the blank wells (or the nonspecific binding (NSB) wells). The wells covered with the adhesive strip were incubated for 1 h at 25°C in a shaking incubator (480 rpm), followed by four times washing steps, each with 400 μL of wash buffer. The 50 μL of the test samples for cAMP determination and cAMP standard were added to wells. Control, blank (NSB), and zero standard wells were added with 50 μL of the diluent RD5-55 buffer. The 50 μL of cAMP conjugate (horseradish peroxidase-labeled cAMP) was then added to wells. The plate covered with a new adhesive strip was incubated for 2 h at 25°C on the shaker, followed by the four times washing steps. Then, 200 μL of substrate solution (equal volume of stabilized hydrogen peroxide and stabilized chromogen) was added to each well, and the test plate was incubated for 30 min at 25°C on the benchtop in darkness. Finally, the reaction was stopped by adding 100 μL of stop solution (2 N sulfuric acid) to each well. Optical densities at 450 and 540 nm were measured using the VersaMax microplate reader. The readings at 540 nm were subtracted from the readings at 450 nm. The cAMP concentrations were expressed as nmol/μg protein. Results were expressed as mean ± SE of duplicate samples of three independent experiments.

[6] = molecular target: AChE from A. aegypti larvae (Aedes aegypti, UniProt A4GND7); test: Acetylcholinesterase assay (microplate); format: biochemical; details: acetylthiocholine iodide hydrolysis at 30°C and pH 8.0
AChE from A. aegypti larvae, sequence (A4GND7 37-679): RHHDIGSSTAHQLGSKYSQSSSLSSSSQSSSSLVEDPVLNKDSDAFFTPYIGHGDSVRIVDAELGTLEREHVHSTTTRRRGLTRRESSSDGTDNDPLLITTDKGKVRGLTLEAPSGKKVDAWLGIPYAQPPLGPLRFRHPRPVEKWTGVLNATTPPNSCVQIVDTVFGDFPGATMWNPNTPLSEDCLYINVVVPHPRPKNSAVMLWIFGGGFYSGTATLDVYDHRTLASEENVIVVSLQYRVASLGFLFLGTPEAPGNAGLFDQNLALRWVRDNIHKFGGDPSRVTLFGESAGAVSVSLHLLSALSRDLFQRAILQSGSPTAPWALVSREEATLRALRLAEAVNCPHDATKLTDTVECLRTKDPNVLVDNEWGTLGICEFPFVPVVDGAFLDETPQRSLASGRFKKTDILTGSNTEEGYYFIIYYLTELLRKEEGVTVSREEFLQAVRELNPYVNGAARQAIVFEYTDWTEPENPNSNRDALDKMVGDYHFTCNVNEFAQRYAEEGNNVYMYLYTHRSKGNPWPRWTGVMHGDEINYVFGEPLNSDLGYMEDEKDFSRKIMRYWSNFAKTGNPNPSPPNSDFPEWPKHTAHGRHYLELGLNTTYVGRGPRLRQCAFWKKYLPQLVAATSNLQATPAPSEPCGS
Protocol: Third instar larvae of A. aegypti was used in all experiments. […] After filtering through cheese cloth, the homogenate was centrifuged at 1000 g at 4°C for 5 min. The supernatant was used as the acetylcholinesterase (AChE) preparation. Protein content was determined by the Bradford dye method using BSA as the standard. Microplate AChE assay was carried out following the method of Hemingway et al. adapted from Ellman et al.. The reaction mixture consisted of 50 μL of the crude enzyme preparation, 150 μL of 0.1 M phosphate buffer, 20 μL of 3 mM DTNB in phosphate buffer (pH 7.0), and 1 μL of various concentrations of each test compound in ethanol. The reaction mixture was incubated at 30°C for 5 min and 20 μL of 32 mM ATChI was then added to the mixture. After incubation for 30 min, the reaction was stopped by adding 20 μL of 5 mM eserine salicylate. The absorbance was recorded at 412 nm using a VersaMax microplate reader (Molecular Devices, Sunnyvale, CA). Results were expressed as mean ± SE of triplicate samples of three independent experiments.
IC50 values and cAMP levels were subjected to ANOVA. […] Means ± SE of untransformed data are reported. Concentration–mortality data were subjected to probit analysis.

Row | Compound | LC50 [1] [mg/L] | LC50 [2] [mg/L] | LC50 [3] [mg/L] | also measured
1 | CCCCCCCC/C=C\CCCCCCCC(=O)OCC [Ethyl oleate, ethyl oleate] | > 200 | > 200 | > 200 | 
2 | CCCCCCCC/C=C\CCCCCCCC(=O)OC [Methyl oleate, methyl oleate] | > 200 | > 200 | > 200 | 
3 | eupomatenoid-5 |  |  |  | LC50 ([4]; neolignans): < 10 mg/L
4 | CCCCOCc1ccc(O)cc1 [4-butoxymethylphenol] |  |  |  | LC50 ([4]; phenol): 0.05 mg/L (≈ 0.277 µM)
5 | C/C=C/c1ccc2c(c1)[C@@H](C)[C@H](c1ccc(O)cc1)O2 [conocarpan] |  |  |  | LC50 ([4]; neolignans): < 10 mg/L
6 | COc1c(-c2ccccc2)oc2c(ccc3occc32)c1=O [Karanjin (1), karanjin] | 35.3 (≈ 121 µM) | 16.1 (≈ 55.2 µM) | 14.6 (≈ 50 µM) | 
7 | CCCCC/C=C\C/C=C\CCCCCCCC(=O)O [Linoleic acid, linoleic acid] | 68.9 (≈ 246 µM) | 21.3 (≈ 75.9 µM) | 20.1 (≈ 71.8 µM) | cAMP level compared with that induced by octopamine [5]: significantly higher than that induced by octopamine
8 | COc1ccc2ccc(=O)oc2c1CC=C(C)C [osthole] |  |  |  | LC50 ([4]; coumarins): 3.14 mg/L (≈ 12.9 µM)
9 | pongamol [Pongamol (5)] |  |  |  | LC50, mg/L (95% CL) ([1]; compounds, third instar larvae from wild Aedes albopictus, 24 h exposure): 56.14 (49.50–64.69) mg/L; LC50, mg/L (95% CL) ([2]; compounds, third instar Aedes aegypti larvae, 24 h exposure): 25.76 (22.44–29.35) mg/L; LC50, mg/L (95% CL) ([3]; compounds, third instar Culex pipiens pallens larvae, 24 h exposure): 23.95 (20.68–27.34) mg/L
10 | CCCCCCCCCCCCCCCCCC(=O)O [Stearic acid, stearic acid] | > 200 | > 200 | > 200 | 
11 | CCOC(=O)/C=C/c1ccccc1 [ethyl cinnamate] |  |  |  | LC50 ([4]; phenylpropanoids): 12.3 mg/L (≈ 69.8 µM)
12 | COc1c(-c2ccccc2)oc2c3c(ccc2c1=O)OC(C)(C)C=C3 [Karanjachromene (2), karanjachromene] | 53 (≈ 158 µM) | 20.6 (≈ 61.5 µM) | 18.7 (≈ 56 µM) | 
13 | O=C1C=CC[C@H](/C=C/c2ccccc2)O1 [goniothalmin] |  |  |  | LC50 ([4]; lactone): 0.87 to 25.95 mg/L
14 | CCCCC/C=C\C/C=C\CCCCCCCC(=O)OC [Methyl linoleate, methyl linoleate] | > 200 | > 200 | > 200 | 
15 | CCCCC/C=C\C/C=C\CCCCCCCC(=O)OCC [Ethyl linoleate, ethyl linoleate] | > 200 | > 200 | > 200 | 
16 | C=C1CC[C@H]2C(C)(C)CCC[C@]2(C)[C@H]1C/C=C(/C=O)CC=O [labda-8(17)-diene-15,16-dial] |  |  |  | LC50 ([4]; terpenoid): < 10 mg/L
17 | CC#CC#CC(=O)c1ccccc1 [capillin] |  |  |  | LC50 ([4]; polyacetylene): < 10 mg/L
18 | CCOC(=O)C=Cc1ccc(OC)cc1 [ethyl p-methoxycinnamate] |  |  |  | LC50 ([4]; phenylpropanoids): 20.7 mg/L (≈ 100 µM)

Row | Compound | LC50 [1] [mg/L] | LC50 [2] [mg/L] | LC50 [3] [mg/L] | also measured
19 | piperonaline |  |  |  | LC50 ([4]; alkaloid): 0.21 to 0.25 mg/L
20 | N#C[C@@H](O[C@@H]1O[C@H](CO)[C@@H](O)[C@H](O)[C@H]1O)c1ccc(O)cc1 [dhurrin] |  |  |  | LC50 ([4]; cyanogenic glycoside): 1.12 mg/L (≈ 3.6 µM)
21 | CCCCCCCCCCCCCCCCCCCCCC(=O)O [Behenic acid, behenic acid] | 105 (≈ 309 µM) | 86.8 (≈ 255 µM) | 68.8 (≈ 202 µM) | cAMP level compared with that induced by octopamine [5]: significantly higher than that induced by octopamine
22 | C/C=C/c1cc(OC)c(OC)cc1OC [α-asarone] |  |  |  | LC50 ([4]; phenylpropanoids): 26.99 mg/L (≈ 130 µM)
23 | C=C[C@H](O)C#CC#CC/C=C\CCCCCCC [falcarinol] |  |  |  | LC50 ([4]; acetylenic alcohols): 3.49 mg/L (≈ 14.3 µM)
24 | COP(=S)(OC)Oc1ccc(SC)c(C)c1 [Fenthion, fenthion, reference compound] | 0.033 (≈ 0.119 µM) | 0.022 (≈ 0.079 µM) | 0.027 (≈ 0.097 µM) | 
25 | O=c1c2c(oc3c1ccc1occc13)COc1ccccc1-2 [Pongarotene (6), pongarotene] | 65 (≈ 224 µM) | 37.6 (≈ 130 µM) | 25.5 (≈ 87.9 µM) | 
26 | CC/C=C\C/C=C\C/C=C\CCCCCCCC(=O)O [Linolenic acid, linolenic acid] | 71.3 (≈ 256 µM) | 22.6 (≈ 81.1 µM) | 21.3 (≈ 76.6 µM) | cAMP level compared with that induced by octopamine [5]: significantly higher than that induced by octopamine
27 | CCCCCCCC/C=C\CCCCCCCC(=O)O [Oleic acid (3), oleic acid] | 18.8 (≈ 66.5 µM) | 18.4 (≈ 65.3 µM) | 18.1 (≈ 64 µM) | cAMP level compared with that induced by octopamine [5]: significantly lower than that induced by octopamine
28 | COP(=S)(OC)Oc1ccc(Sc2ccc(OP(=S)(OC)OC)cc2)cc1 [Temephos, temephos, reference compound] | 0.01 (≈ 0.0214 µM) | 0.015 (≈ 0.0322 µM) | 0.013 (≈ 0.0279 µM) | 
29 | CC(C)=CCOc1c2occc2cc2ccc(=O)oc12 [imperatorin] |  |  |  | LC50 ([4]; coumarins): 2.88 mg/L (≈ 10.7 µM)
30 | CCCCCCCCCCCCCCCCCCCC(=O)O [Arachidic acid, arachidic acid] |  |  |  | cAMP level compared with that induced by octopamine [5]: significantly higher than that induced by octopamine
31 | CCCCCCCC/C=C/CCCCCCCC(=O)O [Elaidic acid, elaidic acid] | 66.3 (≈ 235 µM) | 32.2 (≈ 114 µM) | 28.2 (≈ 99.9 µM) | cAMP level compared with that induced by octopamine [5]: significantly higher than that induced by octopamine
32 | C=C[C@@H](O)C#CC#C[C@@H](O)/C=C\CCCCCCC [falcarindiol] |  |  |  | LC50 ([4]; acetylenic alcohols): 6.51 mg/L (≈ 25 µM)
33 | C/C=C/c1ccc2oc(-c3ccc(O)cc3)c(C)c2c1 [eupomatenoid-6] |  |  |  | LC50 ([4]; neolignans): < 10 mg/L
34 | COC1=C[C@@H](C)[C@@H]2C[C@H]3OC(=O)C[C@H]4C(C)=C(OC)C(=O)[C@H]([C@@]2(C)C1=O)[C@@]34C [quassin] |  |  |  | LC50 ([4]; terpenoid): 6.0 mg/L (≈ 15.4 µM)
35 | CCCCCCCCCCCCCCCC(=O)O [Palmitic acid (4), palmitic acid] | 85.6 (≈ 334 µM) | 43 (≈ 168 µM) | 34.5 (≈ 135 µM) | AChE inhibition IC50 [6]: lowest of any of the compounds examined; cAMP level compared with that induced by octopamine [5]: significantly lower than that induced by octopamine
